Read-outs that look alike come from different tables or passages of the source.
What was measured:
[1] = target: full-length human HPK1 (MAP4K1) (Homo sapiens (Human), UniProt Q92918); assay: HPK1 Kinase Assay (Biochemical Assay), ADP-Glo; conditions: GST-HPK1 3.2 nM, 10 μM ATP, MBP substrate, read-out: HPK1 enzymatic IC50
Summary of the method: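 GST-tagged full-length human HPK1 was expressed in Sf21 cells and used at 3.2 nM in 50 mM HEPES pH 7.5, 10 mM MgCl2, 2 mM DTT, 12.5 mM O-glycerophosphate, 0.01% BSA and 0.02% Brij-35. It was preincubated 15 min with 10-point compound dilutions, and the reaction was started with a start mix of 10 μM ATP and 3.235 μM MBP. After 120 min, ADP was measured by ADP-Glo luminescence and IC50 derived.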

[2] = target: HPK1 (SLP76 phosphorylation at Ser376 in Jurkat and EL-4 cells) (Homo sapiens, UniProt Q92918); format: cell-based
HPK1 (SLP76 phosphorylation at Ser376 in Jurkat and EL-4 cells), sequence (Q92918 whole entry, looked up): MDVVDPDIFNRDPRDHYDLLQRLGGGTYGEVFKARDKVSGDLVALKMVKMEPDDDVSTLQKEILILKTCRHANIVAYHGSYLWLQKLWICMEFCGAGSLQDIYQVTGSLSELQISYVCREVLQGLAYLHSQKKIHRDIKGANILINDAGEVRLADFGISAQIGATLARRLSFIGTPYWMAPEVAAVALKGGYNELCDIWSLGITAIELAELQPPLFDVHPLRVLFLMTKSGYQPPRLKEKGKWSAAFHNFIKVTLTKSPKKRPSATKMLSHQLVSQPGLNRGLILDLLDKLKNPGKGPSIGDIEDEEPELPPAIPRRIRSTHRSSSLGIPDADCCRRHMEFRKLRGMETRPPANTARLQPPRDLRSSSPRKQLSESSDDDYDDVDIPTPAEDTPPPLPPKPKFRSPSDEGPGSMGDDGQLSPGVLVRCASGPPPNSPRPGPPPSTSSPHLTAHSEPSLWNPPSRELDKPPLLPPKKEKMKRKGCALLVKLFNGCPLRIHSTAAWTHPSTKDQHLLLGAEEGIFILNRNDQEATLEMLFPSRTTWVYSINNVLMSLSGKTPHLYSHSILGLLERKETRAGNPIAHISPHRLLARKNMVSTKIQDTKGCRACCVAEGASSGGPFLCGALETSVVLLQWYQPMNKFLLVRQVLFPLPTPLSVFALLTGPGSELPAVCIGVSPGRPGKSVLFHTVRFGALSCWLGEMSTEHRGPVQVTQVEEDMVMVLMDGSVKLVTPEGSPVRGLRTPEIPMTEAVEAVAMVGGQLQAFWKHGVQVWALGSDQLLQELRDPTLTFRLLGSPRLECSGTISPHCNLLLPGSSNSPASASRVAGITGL
Summary of the method: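 Jurkat (human) and EL-4 (mouse) cells, endogenous HPK1/SLP76, preincubated 60 min with compounds (10-point dilution), then stimulated with αCD3/αCD28 beads at 37 °C: 15 min for Jurkat, 30 min for EL-4. Ser376 pSLP76 in lysates read by AlphaLISA (Jurkat) or HTRF (EL-4); % inhibition and IC50 fitted.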

[3] = αCD3/αCD28 Dynabeads stimulated cells, pSLP76 (Ser376) detection; read-out: HPK1 pSLP76 IC50
[4] = read-out: HPK1 pSLP76 IC50; αCD3/αCD28 Dynabeads stimulated cells, pSLP76 (Ser376) detection

full-length human HPK1 (MAP4K1), sequence (Q92918 whole entry): as the sequence (Q92918 whole entry, looked up) above

Row | SMILES | IC50 [1] [nM] | IC50 [2, 3] [nM] | IC50 [2, 4] [nM]
1 | Cc1c(N2CCc3cnc(Nc4ccc5c(c4)COC5)nc3C2)cnc2c1NCCO2 [Example 92, N-(1,3-dihydroisobenzofuran-5-yl)-7-(8-methyl-2,3-dihydro-1H-pyrido[2,3-b][1,4]oxazin-7-yl)-5,6,7,8-tetrahydropyrido[3,4-d]pyrimidin-2-amine] | < 100 | 500 to 1000 | 
2 | Cc1c(N2CCc3cnc(Nc4ccc5c(c4)C(C)(C)OC5)nc3C2)cnc2c1NCCO2 [Example 93, N-(3,3-dimethyl-1,3-dihydroisobenzofuran-5-yl)-7-(8-methyl-2,3-dihydro-1H-pyrido[2,3-b][1,4]oxazin-7-yl)-5,6,7,8-tetrahydropyrido[3,4-d]pyrimidin-2-amine] | < 100 |  | < 500
3 | Cc1c(N2CCc3cnc(Nc4ccc(OC5CCOCC5)cc4)nc3C2)cnc2c1NCCO2 [Example 94, 7-(8-methyl-2,3-dihydro-1H-pyrido[2,3-b][1,4]oxazin-7-yl)-N-(4-((tetrahydro-2H-pyran-4-yl)oxy)phenyl)-5,6,7,8-tetrahydropyrido[3,4-d]pyrimidin-2-amine] | < 100 |  | 500 to 1000
4 | Cc1c(N2CCc3cnc(Nc4ccc5c(c4)CN(C)C5=O)nc3C2)cnc2c1NCCO2 [Example 96, 2-methyl-5-((7-(8-methyl-2,3-dihydro-1H-pyrido[2,3-b][1,4]oxazin-7-yl)-5,6,7,8-tetrahydropyrido[3,4-d]pyrimidin-2-yl)amino)isoindolin-1-one] | < 100 |  | > 1000
5 | Cc1c(N2CCc3cnc(Nc4ccc(OCCN5CCOCC5)cc4)nc3C2)cnc2c1NCCO2 [Example 97, 7-(8-methyl-2,3-dihydro-1H-pyrido[2,3-b][1,4]oxazin-7-yl)-N-(4-(2-morpholinoethoxy)phenyl)-5,6,7,8-tetrahydropyrido[3,4-d]pyrimidin-2-amine] | < 100 |  | 500 to 1000
6 | COCCOc1ccc(Nc2ncc3c(n2)CN(c2cnc4c(c2C)NCCO4)CC3)cc1 [Example 98, N-(4-(2-methoxyethoxy)phenyl)-7-(8-methyl-2,3-dihydro-1H-pyrido[2,3-b][1,4]oxazin-7-yl)-5,6,7,8-tetrahydropyrido[3,4-d]pyrimidin-2-amine] | < 100 | 500 to 1000 | 
7 | Cc1c(N2CCc3cnc(Nc4ccc(N5CCC(O)CC5)nc4)nc3C2)cnc2c1NCCO2 [Example 102, 1-(5-((7-(8-methyl-2,3-dihydro-1H-pyrido[2,3-b][1,4]oxazin-7-yl)-5,6,7,8-tetrahydropyrido[3,4-d]pyrimidin-2-yl)amino)pyridin-2-yl)piperidin-4-ol] | < 100 |  | > 1000
8 | Cc1c(N2CCc3cnc(Nc4ccc(N5CCC(OC(F)(F)F)CC5)cc4)nc3C2)cnc2c1NCCO2 [Example 103, 7-(8-methyl-2,3-dihydro-1H-pyrido[2,3-b][1,4]oxazin-7-yl)-N-(4-(4-(trifluoromethoxy)piperidin-1-yl)phenyl)-5,6,7,8-tetrahydropyrido[3,4-d]pyrimidin-2-amine] | < 100 |  | > 1000
9 | Cc1c(N2CCc3cnc(Nc4cnc5c(c4)CN(CC(F)(F)F)CC5)nc3C2)cnc2c1NCCO2 [Example 106, 7-(8-methyl-2,3-dihydro-1H-pyrido[2,3-b][1,4]oxazin-7-yl)-N-(6-(2,2,2-trifluoroethyl)-5,6,7,8-tetrahydro-1,6-naphthyridin-3-yl)-5,6,7,8-tetrahydropyrido[3,4-d]pyrimidin-2-amine] | < 100 | > 1000 | 

The next lines start with results.

Row | IC50 [1] [nM] | IC50 [2, 3] [nM] | SMILES | IC50 [2, 4] [nM]
10 | < 100 | 500 to 1000 | Cc1c(N2CCc3cnc(Nc4ccc(CN5CCOCC5)cc4)nc3C2)cnc2c1NCCO2 [Example 99, 7-(8-methyl-2,3-dihydro-1H-pyrido[2,3-b][1,4]oxazin-7-yl)-N-(4-(morpholinomethyl)phenyl)-5,6,7,8-tetrahydropyrido[3,4-d]pyrimidin-2-amine] | 
11 | < 100 | 500 to 1000 | Cc1c(N2CCc3cnc(Nc4ccc(C5CCN(C)CC5)cc4)nc3C2)cnc2c1NCCO2 [Example 100, 7-(8-methyl-2,3-dihydro-1H-pyrido[2,3-b][1,4]oxazin-7-yl)-N-(4-(1-methylpiperidin-4-yl)phenyl)-5,6,7,8-tetrahydropyrido[3,4-d]pyrimidin-2-amine] | 
12 | < 100 | < 500 | Cc1c(N2CCc3cnc(Nc4ccc5c(c4)CN(C)C5)nc3C2)cnc2c1NCCO2 [Example 104, 7-(8-methyl-2,3-dihydro-1H-pyrido[2,3-b][1,4]oxazin-7-yl)-N-(2-methylisoindolin-5-yl)-5,6,7,8-tetrahydropyrido[3,4-d]pyrimidin-2-amine] | 
13 | < 100 | 500 to 1000 | Cc1c(N2CCc3cnc(Nc4cnc5c(c4)CN(CC(F)F)CC5)nc3C2)cnc2c1NCCO2 [Example 105, N-(6-(2,2-difluoroethyl)-5,6,7,8-tetrahydro-1,6-naphthyridin-3-yl)-7-(8-methyl-2,3-dihydro-1H-pyrido[2,3-b][1,4]oxazin-7-yl)-5,6,7,8-tetrahydropyrido[3,4-d]pyrimidin-2-amine] | 
14 | < 100 | 500 to 1000 | Cc1c(N2CCc3cnc(Nc4ccc(C5CCN(C)CC5)c(CO)c4)nc3C2)cnc2c1NCCO2 [Example 107, (5-((7-(8-methyl-2,3-dihydro-1H-pyrido[2,3-b][1,4]oxazin-7-yl)-5,6,7,8-tetrahydropyrido[3,4-d]pyrimidin-2-yl)amino)-2-(1-methylpiperidin-4-yl)phenyl)methanol] | 
15 | < 100 | 500 to 1000 | Cc1c(N2CCc3cnc(Nc4cnc5c(c4)CNCC5)nc3C2)cnc2c1NCCO2 [Example 108, 7-(8-methyl-2,3-dihydro-1H-pyrido[2,3-b][1,4]oxazin-7-yl)-N-(5,6,7,8-tetrahydro-1,6-naphthyridin-3-yl)-5,6,7,8-tetrahydropyrido[3,4-d]pyrimidin-2-amine] | 
16 | 100 to 1000 | > 1000 | Cc1c(N2CCc3cnc(Nc4cnc5c(c4)CN(C)CC5)cc3C2)cnc2c1NCCO2 [Example 109, 6-methyl-N-(6-(8-methyl-2,3-dihydro-1H-pyrido[2,3-b][1,4]oxazin-7-yl)-5,6,7,8-tetrahydro-2,6-naphthyridin-3-yl)-5,6,7,8-tetrahydro-1,6-naphthyridin-3-amine] | 
17 | < 100 | 500 to 1000 | Cc1c(N2CCc3cnc(Nc4cnc5c(c4)CC(O)CC5)nc3C2)cnc2c1NCCO2 (centres unmarked) [Example 110, 3-((7-(8-methyl-2,3-dihydro-1H-pyrido[2,3-b][1,4]oxazin-7-yl)-5,6,7,8-tetrahydropyrido[3,4-d]pyrimidin-2-yl)amino)-5,6,7,8-tetrahydroquinolin-6-ol] | 
18 | < 100 | 500 to 1000 | Cc1c(N2CCc3cnc(Nc4ccc(N5CCC(O)CC5)cc4)nc3C2)cnc2c1NCCO2 [Example 111, 1-(4-((7-(8-methyl-2,3-dihydro-1H-pyrido[2,3-b][1,4]oxazin-7-yl)-5,6,7,8-tetrahydropyrido[3,4-d]pyrimidin-2-yl)amino)phenyl)piperidin-4-ol] | 
19 | < 100 | 500 to 1000 | Cc1c(N2CCc3cnc(Nc4ccc(C5CCN(C)CC5)c(CC#N)c4)nc3C2)cnc2c1NCCO2 [Example 112, 2-(5-((7-(8-methyl-2,3-dihydro-1H-pyrido[2,3-b][1,4]oxazin-7-yl)-5,6,7,8-tetrahydropyrido[3,4-d]pyrimidin-2-yl)amino)-2-(1-methylpiperidin-4-yl)phenyl)acetonitrile] | 
